Source: US10457655B2, “Compounds and compositions for inhibition of FASN” (FORMA Therapeutics, Inc., priority 2013, dated 2019)

target: FASN enzyme (Homo sapiens, UniProt P49327); test: Enzymatic Assay for FASN Inhibitors; type: biochemical; conditions: not given
Experimental: Assays were performed in a 384-well black plate to measure the inhibition of FASN activities by individual compounds herein disclosed. An aliquot of 250 nL of compound was incubated with 10 μL of 40 nM FASN enzyme in assay buffer (50 mM HEPES pH=7.3, 0.5 mM EDTA, 1 mM Ascorbate, 100 mM NaCl and 0.04% TritonX-100) in each well at 25° C. for 60 minutes. After the plate was centrifuged briefly, 10 μL of substrate mix (20 μM Acetyl-CoA, 60 μM Malonyl-CoA, and 100 μM NADPH in assay buffer) was added to each well. The reaction was maintained at 25° C. for 90 minutes. The reaction was then quenched by adding 10 μL of 90 μM 7-Diethylamino-3-(4′-Maleimidylpheynyl)-4-Methylcoumarin in 50/50 Ethanol/H2O solution. The assay plate was incubated at 25° C. for 15 minutes, and read on a plate reader with excitation and emission wavelength at 360 nm and 530 nm, respectively. The IC50 of a given compound was calculated by fitting the dose response curve with a four parameter logistic equation.

Sequence of FASN enzyme (P49327 whole entry): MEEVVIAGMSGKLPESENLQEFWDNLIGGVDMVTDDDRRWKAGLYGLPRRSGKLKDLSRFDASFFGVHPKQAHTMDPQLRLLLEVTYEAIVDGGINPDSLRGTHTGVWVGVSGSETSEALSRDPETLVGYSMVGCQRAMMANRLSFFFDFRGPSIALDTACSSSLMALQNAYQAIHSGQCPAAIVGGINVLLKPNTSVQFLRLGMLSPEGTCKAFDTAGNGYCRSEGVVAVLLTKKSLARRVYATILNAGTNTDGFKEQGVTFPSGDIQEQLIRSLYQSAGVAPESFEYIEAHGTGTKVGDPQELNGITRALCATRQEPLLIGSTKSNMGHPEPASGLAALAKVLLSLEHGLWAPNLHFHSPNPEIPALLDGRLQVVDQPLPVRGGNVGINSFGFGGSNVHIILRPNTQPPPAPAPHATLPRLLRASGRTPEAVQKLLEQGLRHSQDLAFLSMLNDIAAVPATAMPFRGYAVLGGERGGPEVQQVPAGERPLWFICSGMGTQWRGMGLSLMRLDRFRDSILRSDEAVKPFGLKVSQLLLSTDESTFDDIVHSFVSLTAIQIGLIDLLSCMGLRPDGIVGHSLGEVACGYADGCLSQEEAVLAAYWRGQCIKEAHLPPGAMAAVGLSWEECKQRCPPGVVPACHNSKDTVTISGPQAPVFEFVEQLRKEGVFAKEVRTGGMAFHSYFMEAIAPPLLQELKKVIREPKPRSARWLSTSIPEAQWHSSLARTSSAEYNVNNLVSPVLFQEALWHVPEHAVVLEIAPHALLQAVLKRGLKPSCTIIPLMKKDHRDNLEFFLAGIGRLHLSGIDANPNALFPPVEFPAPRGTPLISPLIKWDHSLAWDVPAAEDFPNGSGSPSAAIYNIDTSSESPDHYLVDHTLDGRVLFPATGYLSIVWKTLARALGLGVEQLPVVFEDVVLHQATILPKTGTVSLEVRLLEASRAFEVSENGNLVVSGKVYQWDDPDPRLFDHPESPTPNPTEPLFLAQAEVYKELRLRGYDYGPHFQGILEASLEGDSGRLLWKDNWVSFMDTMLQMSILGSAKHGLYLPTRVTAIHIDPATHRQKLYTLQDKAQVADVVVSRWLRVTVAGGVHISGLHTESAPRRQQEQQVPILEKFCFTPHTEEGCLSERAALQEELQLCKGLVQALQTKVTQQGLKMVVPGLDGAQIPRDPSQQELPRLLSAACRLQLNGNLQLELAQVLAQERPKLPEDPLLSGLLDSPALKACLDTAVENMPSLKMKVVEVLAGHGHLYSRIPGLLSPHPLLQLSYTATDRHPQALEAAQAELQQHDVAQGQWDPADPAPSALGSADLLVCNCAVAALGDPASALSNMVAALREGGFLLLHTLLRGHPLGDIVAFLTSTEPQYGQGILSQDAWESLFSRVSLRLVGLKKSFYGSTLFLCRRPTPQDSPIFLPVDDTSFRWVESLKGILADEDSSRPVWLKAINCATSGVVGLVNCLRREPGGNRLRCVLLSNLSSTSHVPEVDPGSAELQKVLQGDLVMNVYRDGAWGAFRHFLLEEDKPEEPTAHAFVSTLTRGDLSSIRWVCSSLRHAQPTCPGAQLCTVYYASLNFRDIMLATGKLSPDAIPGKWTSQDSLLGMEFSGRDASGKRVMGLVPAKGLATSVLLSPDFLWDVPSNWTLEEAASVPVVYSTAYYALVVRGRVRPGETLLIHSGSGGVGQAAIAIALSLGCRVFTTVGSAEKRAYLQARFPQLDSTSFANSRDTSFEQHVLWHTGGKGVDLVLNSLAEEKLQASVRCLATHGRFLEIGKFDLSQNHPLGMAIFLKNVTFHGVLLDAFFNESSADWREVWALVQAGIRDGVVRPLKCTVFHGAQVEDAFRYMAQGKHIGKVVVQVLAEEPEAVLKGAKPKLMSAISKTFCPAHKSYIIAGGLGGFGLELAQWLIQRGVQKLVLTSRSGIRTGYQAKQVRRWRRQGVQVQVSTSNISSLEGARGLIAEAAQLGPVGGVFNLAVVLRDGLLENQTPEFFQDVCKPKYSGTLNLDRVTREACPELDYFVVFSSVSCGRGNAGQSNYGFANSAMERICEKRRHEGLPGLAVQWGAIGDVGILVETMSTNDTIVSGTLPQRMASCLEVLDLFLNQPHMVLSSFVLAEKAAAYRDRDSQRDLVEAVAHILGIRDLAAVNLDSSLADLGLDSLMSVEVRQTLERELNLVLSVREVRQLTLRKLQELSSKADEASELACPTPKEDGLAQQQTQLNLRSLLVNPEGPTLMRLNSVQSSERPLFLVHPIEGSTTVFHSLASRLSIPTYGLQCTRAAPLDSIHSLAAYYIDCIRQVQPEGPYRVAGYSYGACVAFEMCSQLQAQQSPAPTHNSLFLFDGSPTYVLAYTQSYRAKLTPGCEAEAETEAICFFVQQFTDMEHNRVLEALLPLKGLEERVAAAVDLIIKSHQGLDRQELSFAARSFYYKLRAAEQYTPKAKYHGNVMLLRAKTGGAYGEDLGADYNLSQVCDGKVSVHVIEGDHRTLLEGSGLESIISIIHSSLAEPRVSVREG

| SMILES | IC50 [nM] |
| --- | --- |
| Nc1cc(-c2cccc(-c3ccc(C(=O)N4CCN(C(=O)C5(O)CC5)CC4)cc3)c2)no1 [1-(4-{4-[3-(5-amino-1,2-oxazol-3-yl)phenyl]benzoyl}piperazine-1-carbonyl)cyclopropan-1-ol] | < 500 |
| Cc1nc2cc(Cl)cc(-c3ccc(C(=O)N4CCN(C(=O)C5(O)CC5)CC4)cc3)c2[nH]1 | < 500 |
| Nc1cc(-c2cccc(-c3ccc(C(=O)N4CCN(C(=O)C5(O)CC5)CC4)cc3)c2)n[nH]1 [1-(4-{4-[3-(5-amino-1H-pyrazol-3-yl)phenyl]benzoyl}piperazine-1-carbonyl)cyclopropan-1-ol] | < 500 |
| Cn1cc2ccc(-c3cc(F)c(C(=O)N4CCN(C(=O)C5(N)CC5)CC4)c(F)c3)cc2n1 [1-{4-[2,6-difluoro-4-(2-methyl-2H-indazol-6-yl)benzoyl]piperazine-1-carbonyl}cyclopropan-1-amine] | < 500 |
| COc1cc(Cl)ccc1-c1ccc(C(=O)N2CCN(C(=O)C3(O)CC3)CC2)cc1 [1-[(4-{[4-(4-chloro-2-methoxyphenyl)phenyl]carbonyl}piperazin-1-yl)carbonyl]cyclopropan-1-ol] | < 500 |
| Cc1nn(-c2ccc(C(=O)N3CCN(C(=O)C4(O)CC4)CC3)c(F)c2)c2ccccc12 | < 500 |
| O=C(c1ccc(-c2nc3ccccn3c2Cl)c(Cl)c1)N1CCN(C(=O)C2(O)CC2)CC1 [1-[4-(3-chloro-4-{3-chloroimidazo[1,2-a]pyridin-2-yl}benzoyl)piperazine-1-carbonyl]cyclopropan-1-ol] | < 500 |
| O=C(c1ccc(N2CCc3sccc3C2)cc1)N1CCN(C(=O)C2(O)CC2)CC1 [1-[4-(4-{4H,5H,6H,7H-thieno[3,2-c]pyridin-5-yl}benzoyl)piperazine-1-carbonyl]cyclopropan-1-ol] | < 500 |
| O=C(c1ccc(-c2ccc3cc(F)ccc3n2)c(F)c1F)N1CCN(C(=O)C2(O)CC2)CC1 [1-[(4-{[2,3-difluoro-4-(6-fluoroquinolin-2-yl)phenyl]carbonyl}piperazin-1-yl)carbonyl]cyclopropan-1-ol] | < 500 |
| C[C@H]1CN(C(=O)c2ccc(-c3ccc4cn(C)nc4c3)cc2)CCN1C(=O)C1(O)CC1 [1-[(2S)-2-methyl-4-[4-(2-methyl-2H-indazol-6-yl)benzoyl]piperazine-1-carbonyl]cyclopropan-1-ol] | < 500 |
| O=C(c1ccc(-c2ccc3ccnn3c2)cc1)N1CCN(C(=O)C2(O)CC2)CC1 [1-[4-(4-{pyrazolo[1,5-a]pyridin-6-yl}benzoyl)piperazine-1-carbonyl]cyclopropan-1-ol] | < 500 |
| Cn1ccc2cc(-c3cnc(C(=O)N4CCN(C(=O)C5(O)CC5)CC4)cn3)ccc21 [1-[(4-{[5-(1-methyl-1H-indol-5-yl)pyrazin-2-yl]carbonyl}piperazin-1-yl)carbonyl]cyclopropan-1-ol] | < 500 |
| O=C(c1ccc(N2CCCc3ccccc32)cc1)N1CCN(C(=O)C2(O)CC2)CC1 | < 500 |
| C[C@H]1CN(C(=O)c2ccc(-c3nc4ccc(F)cc4o3)cc2)CCN1C(=O)C1(N)CC1 [1-[(2S)-4-[4-(6-fluoro-1,3-benzoxazol-2-yl)benzoyl]-2-methylpiperazine-1-carbonyl]cyclopropan-1-amine] | < 500 |
| C[C@H]1CN(C(=O)C2(O)CC2)CCN1C(=O)c1ccc(-c2ccc3c(c2)ncn3C)cc1 | < 500 |
| Nc1nc(-c2cccc(-c3ccc(C(=O)N4CCN(C(=O)C5(O)CC5)CC4)cc3)c2)cs1 [1-(4-{4-[3-(2-amino-1,3-thiazol-4-yl)phenyl]benzoyl}piperazine-1-carbonyl)cyclopropan-1-ol] | < 500 |
| O=C(c1ccc(-c2cccc(NS(=O)(=O)CC3CCC3)c2)cc1)N1CCN(C(=O)C2(O)CC2)CC1 [1-cyclobutyl-N-(3-{4-[4-(1-hydroxycyclopropanecarbonyl)piperazine-1-carbonyl]phenyl}phenyl)methanesulfonamide] | < 500 |

Second part, the compound after the results:

| IC50 [nM] | SMILES |
| --- | --- |
| < 500 | Cn1cnc2cc(-c3ccc(C(=O)N4CCN(C(=O)C5(N)CCC5)CC4)c(F)c3)ccc21 [1-{4-[2-fluoro-4-(1-methyl-1H-1,3-benzodiazol-5-yl)benzoyl]piperazine-1-carbonyl}cyclobutan-1-amine] |
| < 500 | O=C(c1ccc(-c2ccc(Cl)cc2F)cc1F)N1CCN(C(=O)C2(O)CC2)CC1 [1-{4-[4-(4-chloro-2-fluorophenyl)-2-fluorobenzoyl]piperazine-1-carbonyl}cyclopropan-1-ol] |
| < 500 | Cc1nn(C)c2ccc(-c3ccc(C(=O)N4CCN(C(=O)C5(O)CC5)CC4)cc3F)cc12 [1-{4-[4-(1,3-dimethyl-1H-indazol-5-yl)-3-fluorobenzoyl]piperazine-1-carbonyl}cyclopropan-1-ol] |
| < 500 | CNC(=O)c1cccc(-c2ccc(C(=O)N3CCN(C(=O)C4(O)CC4)CC3)cc2)n1 [6-{4-[4-(1-hydroxycyclopropanecarbonyl)piperazine-1-carbonyl]phenyl}-N-methylpyridine-2-carboxamide] |
| < 500 | CCOC(=O)Nc1cccc(-c2ccc(C(=O)N3CCN(C(=O)C4(O)CC4)CC3)cc2)c1 [ethyl N-(3-{4-[4-(1-hydroxycyclopropanecarbonyl)piperazine-1-carbonyl]phenyl}phenyl)carbamate] |
| < 500 | Cc1n[nH]c2c(-c3ccc(C(=O)N4CCN(C(=O)C5(O)CC5)CC4)c(F)c3)cccc12 [1-{4-[2-fluoro-4-(3-methyl-1H-indazol-7-yl)benzoyl]piperazine-1-carbonyl}cyclopropan-1-ol] |
| < 500 | Cc1nn(-c2ccc(C(=O)N3CCN(C(=O)C4(O)CC4)CC3)cc2)c2ccccc12 [(4-(1-hydroxycyclopropane-1-carbonyl)piperazin-1-yl)(4-(3-methyl-1H-indazol-1-yl)phenyl)methanone] |
| < 500 | O=C(c1ccc(N2CCc3cccnc3C2)cc1F)N1CCN(C(=O)C2(O)CC2)CC1 [1-{4-[2-fluoro-4-(5,6,7,8-tetrahydro-1,7-naphthyridin-7-yl)benzoyl]piperazine-1-carbonyl}cyclopropan-1-ol] |
| < 500 | O=C(c1ccc(-c2ccc3c(C4CC4)n[nH]c3c2)cc1)N1CCN(C(=O)C2(O)CC2)CC1 [1-{4-[4-(3-cyclopropyl-1H-indazol-6-yl)benzoyl]piperazine-1-carbonyl}cyclopropan-1-ol] |
| < 500 | Cc1cc2ccccc2n1-c1ccc(C(=O)N2CCN(C(=O)C3(O)CC3)CC2)cc1 [(4-(1-hydroxycyclopropane-1-carbonyl)piperazin-1-yl)(4-(2-methyl-1H-indol-1-yl)phenyl)methanone] |
| < 500 | Cn1cc2ccc(-c3ccc(C(=O)N4CCN(C(=O)C5(O)CC5)CC4)cc3Cl)cc2n1 [1-{4-[3-chloro-4-(2-methyl-2H-indazol-6-yl)benzoyl]piperazine-1-carbonyl}cyclopropan-1-ol] |
| < 500 | Nc1n[nH]c2ccc(-c3ccc(C(=O)N4CCN(C(=O)C5(O)CC5)CC4)cc3)cc12 [1-{4-[4-(3-amino-1H-indazol-5-yl)benzoyl]piperazine-1-carbonyl}cyclopropan-1-ol] |
| < 500 | O=C(c1ccc(N2Cc3ccccc3C2)cc1)N1CCN(C(=O)C2(O)CC2)CC1 [1-{4-[4-(2,3-dihydro-1H-isoindol-2-yl)benzoyl]piperazine-1-carbonyl}cyclopropan-1-ol] |

same assay, conditions: FASN enzymatic assay; Table 2-2

| SMILES | IC50 [nM] |
| --- | --- |
| Cc1ccc(-c2ccc(C(=O)N3CCN(C(=O)C4(O)CC4)CC3)cc2)cc1F [1-[(4-{[4-(3-fluoro-4-methylphenyl)phenyl]carbonyl}piperazin-1-yl)carbonyl]cyclopropan-1-ol] | 500 to 5000 |
| O=C(c1ccc(-c2ccc3nonc3c2)cc1)N1CCN(C(=O)C2(O)CC2)CC1 [1-[(4-{[4-(2,1,3-benzoxadiazol-5-yl)phenyl]carbonyl}piperazin-1-yl)carbonyl]cyclopropan-1-ol] | 500 to 5000 |
| O=C(c1ncc(-c2ccc3ncccc3c2)cn1)N1CCN(C(=O)C2(O)CC2)CC1 [1-[(4-{[5-(quinolin-6-yl)pyrimidin-2-yl]carbonyl}piperazin-1-yl)carbonyl]cyclopropan-1-ol] | 500 to 5000 |
| O=C(c1ccc(-c2cn3ccnc3cn2)cc1)N1CCN(C(=O)C2(O)CC2)CC1 [1-({4-[(4-{imidazo[1,2-a]pyrazin-6-yl}phenyl)carbonyl]piperazin-1-yl}carbonyl)cyclopropan-1-ol] | 500 to 5000 |
| COc1cc(-c2ccc3ncccc3c2)ccc1C(=O)N1CCN(C(=O)C2(O)CC2)CC1 [1-[(4-{[2-methoxy-4-(quinolin-6-yl)phenyl]carbonyl}piperazin-1-yl)carbonyl]cyclopropan-1-ol] | 500 to 5000 |

Second part, the compound after the results:

| IC50 [nM] | SMILES |
| --- | --- |
| 500 to 5000 | O=C(c1ccc(-c2ccc3oc(=O)[nH]c3c2)cc1)N1CCN(C(=O)C2(O)CC2)CC1 [5-[4-({4-[(1-hydroxycyclopropyl)carbonyl]piperazin-1-yl}carbonyl)phenyl]-2,3-dihydro-1,3-benzoxazol-2-one] |
| 500 to 5000 | O=C(c1ccc(-c2ccc3[nH]c(=O)oc3c2)cc1)N1CCN(C(=O)C2(O)CC2)CC1 [6-[4-({4-[(1-hydroxycyclopropyl)carbonyl]piperazin-1-yl}carbonyl)phenyl]-2,3-dihydro-1,3-benzoxazol-2-one] |
| 500 to 5000 | O=C(c1ccc(-c2ccc(Cl)cc2F)cc1)N1CCN(C(=O)C2(O)CC2)C[C@H]1CO [1-{[(3S)-4-{[4-(4-chloro-2-fluorophenyl)phenyl]carbonyl}-3-(hydroxymethyl)piperazin-1-yl]carbonyl}cyclopropan-1-ol] |

same assay, conditions: FASN enzymatic assay; Table 2-3

| IC50 [nM] | SMILES |
| --- | --- |
| ≥ 5000 | O=C(c1cn2cc(-c3ccccc3)ccc2n1)N1CCN(C(=O)C2(O)CC2)CC1 [1-{[4-({6-phenylimidazo[1,2-a]pyridin-2-yl}carbonyl)piperazin-1-yl]carbonyl}cyclopropan-1-ol] |
